Source: US20170121351A1, “Synthesis of Zinc-Lysine Complex From Zinc Chloride” (Colgate-Palmolive Company, priority 2014, published 2017)

Assay: Zeta potential
Format: physicochemical
Method: In certain embodiments, the ZLC, e.g., any of Complex 2, et seq. can have a zeta potential on the order of +10 to +60, e.g., between +20 and +50. Zeta potential is measured as described below. The zeta potential indicates the degree of repulsion between adjacent, similarly charged particles in a dispersion. For molecules and particles that are small enough to be influenced by […], a high zeta potential will tend to confer stability, i.e., the particles will tend to repel one another, and the solution or dispersion will resist aggregation. When the zeta potential is low, attraction exceeds repulsion and the dispersion will break and flocculate. Here, it is desirable to have a zeta potential that is high enough in formulation to deter aggregation, but low enough to allow flocculation and blockage of the pores. […] Having a similar zeta potential, the ZLC, e.g., any of Complex 2, et seq. will behave similarly and flocculate when introduced into a pore and becomes hydrated. In contrast, zinc chloride has a zeta potential of about 0, which is much lower than current antiperspirant salts and the current disclosure.

[Cl-].[Cl-].[Zn+2] [zinc chloride]
zeta potential: about 0
